The values that follow come from patent US20220409598A1, “METHOD OF CONTROLLING BLOOD SUGAR LEVEL AND TREATMENT OF DIABETES AND RELATED CONDITIONS” (ILDONG PHARMACEUTICAL CO., LTD., priority 2021, published 2022).

Series [1] is described as follows: Single ascending dose (SAD) study in healthy human, safety. Type of series: in vivo. On the procedure: To determine safety and pK data in human subjects, single ascending dose (SAD) study was conducted. SAD study included 5 cohorts of 8 healthy subjects who were randomized and received a single oral dose of Reference Example 1 compound or placebo (3:1) at 0.5 mg, 1 mg, 2 mg, 5 mg, or 10 mg. Each cohort was initiated after review of the safety and PK data of the previous cohort. 5 mg cohort was divided into two groups, wherein one group was administered with Reference Example 1 compound in fasted state and the other group was administered with Reference Example 1 compound together with food.
As expected from preclinical PK modelling, none of the single doses exceeded the PK stopping criteria for Cmax and AUClast.
Of the 12 AEs, 5 were considered to be possibly related to IMP (Investigational Medicinal Product). The 5 AE included headaches (2), lower abdominal pain, diarrhea, and exanthema in the right upper arm, all of which were of mild intensity and recovered quickly.
Overall, none of the AEs caused medical concern, and no stopping criteria per protocol were met.

A short description of series [2]: OGTT (Oral Glucose Tolerance Test) in SD rats. The class given is in vivo. To be noted: 1 mg/kg. The procedure:
Additionally, the results of the exposure and efficacy of Reference Example 1 compound (at 0.1 mg/kg, 0.3 mg/kg, and 1 mg/kg doses) in SD rats are shown in FIG. 6.

Series [3] addresses BSEP (bile salt export pump) (Homo sapiens, UniProt O95342). Briefly: Human transporter inhibition study, BSEP. Type of series: biochemical. The source says:
DILI risk may be due to potency of BSEP inhibition in combination with in vivo drug exposure (e.g., Cmax or Css (plasma concentration at steady state)).
(§1) • (a) Human Transporter Inhibition Study and Safety Margin

The target in another series is MRP2 (Homo sapiens, UniProt Q92887). Briefly: Human transporter inhibition study, MRP2. The class given is biochemical. To be noted: read-out: MRP2 in vitro inhibition IC50.
MRP2, sequence (Q92887 whole entry): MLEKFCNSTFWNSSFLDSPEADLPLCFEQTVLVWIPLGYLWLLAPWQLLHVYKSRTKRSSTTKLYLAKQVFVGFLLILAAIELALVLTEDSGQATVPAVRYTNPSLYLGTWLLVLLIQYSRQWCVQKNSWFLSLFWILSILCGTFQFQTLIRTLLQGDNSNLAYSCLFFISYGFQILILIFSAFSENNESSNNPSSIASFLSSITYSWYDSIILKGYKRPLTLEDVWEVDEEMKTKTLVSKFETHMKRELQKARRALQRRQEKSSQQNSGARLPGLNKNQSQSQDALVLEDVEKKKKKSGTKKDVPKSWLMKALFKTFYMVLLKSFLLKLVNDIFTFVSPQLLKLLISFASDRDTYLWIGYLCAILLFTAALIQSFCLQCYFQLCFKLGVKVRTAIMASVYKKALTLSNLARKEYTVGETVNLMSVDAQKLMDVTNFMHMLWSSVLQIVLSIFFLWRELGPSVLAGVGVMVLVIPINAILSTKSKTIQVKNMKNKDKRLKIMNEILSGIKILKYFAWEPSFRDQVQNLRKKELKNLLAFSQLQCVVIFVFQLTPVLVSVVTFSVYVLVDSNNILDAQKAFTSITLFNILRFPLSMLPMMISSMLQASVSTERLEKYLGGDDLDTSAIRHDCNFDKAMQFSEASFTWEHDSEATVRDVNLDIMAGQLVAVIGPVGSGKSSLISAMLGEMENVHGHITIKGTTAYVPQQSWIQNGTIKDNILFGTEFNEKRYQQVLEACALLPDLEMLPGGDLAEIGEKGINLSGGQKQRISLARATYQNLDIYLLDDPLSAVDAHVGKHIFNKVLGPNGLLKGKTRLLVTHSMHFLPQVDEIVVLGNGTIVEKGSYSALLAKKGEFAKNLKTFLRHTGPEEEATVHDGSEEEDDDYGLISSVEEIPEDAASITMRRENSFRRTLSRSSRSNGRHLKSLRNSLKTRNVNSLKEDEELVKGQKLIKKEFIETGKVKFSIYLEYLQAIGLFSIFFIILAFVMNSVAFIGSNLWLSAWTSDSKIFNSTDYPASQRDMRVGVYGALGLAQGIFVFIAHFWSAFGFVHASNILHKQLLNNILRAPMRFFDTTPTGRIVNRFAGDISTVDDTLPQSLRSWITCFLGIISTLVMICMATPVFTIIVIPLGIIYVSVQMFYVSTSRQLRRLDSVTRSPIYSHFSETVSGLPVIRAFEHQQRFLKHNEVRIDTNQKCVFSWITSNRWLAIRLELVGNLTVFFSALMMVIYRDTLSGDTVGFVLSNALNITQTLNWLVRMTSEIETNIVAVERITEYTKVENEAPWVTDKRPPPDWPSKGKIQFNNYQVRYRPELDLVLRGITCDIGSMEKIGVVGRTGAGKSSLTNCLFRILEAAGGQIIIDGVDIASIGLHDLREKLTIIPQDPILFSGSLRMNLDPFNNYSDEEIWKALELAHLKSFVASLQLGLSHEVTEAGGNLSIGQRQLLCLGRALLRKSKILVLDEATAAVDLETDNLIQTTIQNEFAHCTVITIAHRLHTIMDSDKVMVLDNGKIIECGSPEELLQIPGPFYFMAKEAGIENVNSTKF
Source text: as §1

For another series, the target named is MRP3 (Homo sapiens, UniProt O15438). Briefly: Human transporter inhibition study, MRP3. Type of series: biochemical.
MRP3, sequence (O15438 whole entry): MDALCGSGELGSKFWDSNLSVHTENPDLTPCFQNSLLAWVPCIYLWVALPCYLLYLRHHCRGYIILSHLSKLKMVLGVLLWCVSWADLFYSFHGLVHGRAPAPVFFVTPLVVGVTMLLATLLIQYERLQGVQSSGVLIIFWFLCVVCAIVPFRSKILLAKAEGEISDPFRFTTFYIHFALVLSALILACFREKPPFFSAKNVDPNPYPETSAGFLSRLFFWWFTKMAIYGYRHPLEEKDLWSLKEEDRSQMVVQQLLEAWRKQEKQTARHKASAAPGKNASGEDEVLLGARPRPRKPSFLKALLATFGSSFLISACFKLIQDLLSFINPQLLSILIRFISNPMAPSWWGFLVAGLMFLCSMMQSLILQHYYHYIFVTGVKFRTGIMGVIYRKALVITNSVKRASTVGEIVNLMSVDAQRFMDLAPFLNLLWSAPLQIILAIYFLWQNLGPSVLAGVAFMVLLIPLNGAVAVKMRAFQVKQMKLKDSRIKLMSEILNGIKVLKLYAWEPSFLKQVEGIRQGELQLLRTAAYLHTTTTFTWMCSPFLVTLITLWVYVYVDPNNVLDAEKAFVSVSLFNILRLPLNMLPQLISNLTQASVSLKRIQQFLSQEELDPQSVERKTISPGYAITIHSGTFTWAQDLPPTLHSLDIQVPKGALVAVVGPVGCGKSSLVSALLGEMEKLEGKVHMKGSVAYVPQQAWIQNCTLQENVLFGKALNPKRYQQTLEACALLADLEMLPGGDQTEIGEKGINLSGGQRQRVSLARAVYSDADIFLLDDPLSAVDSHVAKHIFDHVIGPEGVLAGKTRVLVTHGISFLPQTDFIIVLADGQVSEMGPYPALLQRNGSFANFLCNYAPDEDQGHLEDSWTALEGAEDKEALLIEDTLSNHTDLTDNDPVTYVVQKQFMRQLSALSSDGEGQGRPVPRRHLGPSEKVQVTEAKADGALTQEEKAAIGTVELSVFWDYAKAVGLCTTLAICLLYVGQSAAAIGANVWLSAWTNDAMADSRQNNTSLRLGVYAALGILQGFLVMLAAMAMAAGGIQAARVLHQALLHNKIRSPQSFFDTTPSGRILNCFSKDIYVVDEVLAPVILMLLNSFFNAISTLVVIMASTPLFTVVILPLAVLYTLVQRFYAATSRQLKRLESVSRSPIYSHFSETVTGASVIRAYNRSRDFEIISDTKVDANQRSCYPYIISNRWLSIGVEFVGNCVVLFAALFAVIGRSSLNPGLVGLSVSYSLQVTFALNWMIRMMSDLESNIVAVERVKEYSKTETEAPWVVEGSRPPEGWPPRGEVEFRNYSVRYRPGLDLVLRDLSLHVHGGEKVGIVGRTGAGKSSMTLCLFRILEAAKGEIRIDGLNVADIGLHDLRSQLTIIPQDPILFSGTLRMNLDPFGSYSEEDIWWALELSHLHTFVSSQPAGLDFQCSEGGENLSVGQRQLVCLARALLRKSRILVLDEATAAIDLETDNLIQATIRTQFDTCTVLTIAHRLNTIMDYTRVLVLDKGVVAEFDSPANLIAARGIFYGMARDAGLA
Source text: as §1

A further series addresses T1, MRP4 (Homo sapiens, UniProt O15439).
T1 sequence (O15439 1-1325): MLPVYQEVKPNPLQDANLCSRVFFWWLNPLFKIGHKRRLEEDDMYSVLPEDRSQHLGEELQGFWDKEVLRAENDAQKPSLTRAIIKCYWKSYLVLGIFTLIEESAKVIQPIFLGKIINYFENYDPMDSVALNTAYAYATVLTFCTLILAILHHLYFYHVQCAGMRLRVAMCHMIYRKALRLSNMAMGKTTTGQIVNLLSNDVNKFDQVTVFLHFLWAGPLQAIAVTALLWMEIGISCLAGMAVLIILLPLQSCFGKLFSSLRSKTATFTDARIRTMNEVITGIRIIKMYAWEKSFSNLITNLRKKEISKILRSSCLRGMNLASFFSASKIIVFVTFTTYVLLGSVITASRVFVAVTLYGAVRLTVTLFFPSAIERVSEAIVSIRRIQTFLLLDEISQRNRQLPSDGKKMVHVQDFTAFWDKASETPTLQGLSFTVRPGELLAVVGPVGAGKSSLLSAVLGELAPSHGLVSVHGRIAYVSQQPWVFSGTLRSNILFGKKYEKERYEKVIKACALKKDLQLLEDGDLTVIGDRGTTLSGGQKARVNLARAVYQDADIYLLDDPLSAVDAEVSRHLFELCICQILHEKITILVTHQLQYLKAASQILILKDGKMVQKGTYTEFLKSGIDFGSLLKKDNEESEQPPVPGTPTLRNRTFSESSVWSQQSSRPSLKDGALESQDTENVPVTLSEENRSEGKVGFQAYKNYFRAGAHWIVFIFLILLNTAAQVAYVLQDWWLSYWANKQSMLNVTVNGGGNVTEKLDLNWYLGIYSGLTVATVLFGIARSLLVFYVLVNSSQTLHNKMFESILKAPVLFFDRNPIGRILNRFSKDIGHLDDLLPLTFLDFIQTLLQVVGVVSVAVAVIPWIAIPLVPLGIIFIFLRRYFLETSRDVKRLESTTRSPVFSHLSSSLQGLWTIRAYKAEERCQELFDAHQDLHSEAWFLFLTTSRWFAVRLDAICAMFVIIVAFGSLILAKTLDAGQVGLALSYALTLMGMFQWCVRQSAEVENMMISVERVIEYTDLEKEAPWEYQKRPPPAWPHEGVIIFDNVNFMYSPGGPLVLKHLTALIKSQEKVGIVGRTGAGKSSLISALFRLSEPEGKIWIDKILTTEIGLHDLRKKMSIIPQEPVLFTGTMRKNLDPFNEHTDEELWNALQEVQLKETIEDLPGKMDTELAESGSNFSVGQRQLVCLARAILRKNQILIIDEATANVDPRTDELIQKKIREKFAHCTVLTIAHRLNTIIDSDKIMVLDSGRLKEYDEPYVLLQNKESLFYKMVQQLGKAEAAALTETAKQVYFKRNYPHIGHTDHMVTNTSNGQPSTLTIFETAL
Briefly: Human transporter inhibition study, MRP4. Type of series: biochemical. To be noted: read-out: MRP4 in vitro inhibition IC50.
Source text: as §1

The test system of series [4] is glycocholic acid (GCA) accumulation. Briefly: Bile acid analysis, glycocholic acid (GCA) accumulation. Type of series: cell-based. To be noted: at 1 μM. The source says: Glycocholic acid (GCA) and glycochenodeoxycholic acid (GCDCA) are major components of human bile acids and their significant increase has been confirmed in DILI patients.
The subject of another series is HepaRG cell. Briefly: Mitochondrial function inhibition in HepaRG cell. The class given is cell-based.
In a further series the test system is human hepatocytes. Briefly: Covalent protein binding in human hepatocytes. The class given is in vitro ADME. On the procedure:
The covalent binding (CVB) burden was estimated by determining the CVB of radiolabeled compound to human hepatocytes and factoring in both the daily dose and the fraction of metabolism leading to CVB. […] Reference Example 1 compound's dose over 260 mg a day was predicted to exceed the CVB burden threshold of 1 mg/day.

Series [5] is described as follows: HμRELTox assay, hepatotoxic response. The class given is cell-based. To be noted: read-out: TC50 (the source's name).
A further series relates to FXR. Briefly: Transcription factor profiling in 2D HepG2 cell, FXR. Type of series: cell-based. Conditions: 10 μM for 48 hours.
Series [6] deals with hepatic transcription factors. Briefly: Transcription factor profiling in 2D HepG2 cell, various hepatic transcription factors. Type of series: cell-based. Conditions: 2D HepG2 cell, 0.3, 3.3, 10 μM; compared to fasiglifam.

Like-named read-outs stand apart in the source and are kept apart here.

BSEP (bile salt export pump), sequence (O95342 whole entry): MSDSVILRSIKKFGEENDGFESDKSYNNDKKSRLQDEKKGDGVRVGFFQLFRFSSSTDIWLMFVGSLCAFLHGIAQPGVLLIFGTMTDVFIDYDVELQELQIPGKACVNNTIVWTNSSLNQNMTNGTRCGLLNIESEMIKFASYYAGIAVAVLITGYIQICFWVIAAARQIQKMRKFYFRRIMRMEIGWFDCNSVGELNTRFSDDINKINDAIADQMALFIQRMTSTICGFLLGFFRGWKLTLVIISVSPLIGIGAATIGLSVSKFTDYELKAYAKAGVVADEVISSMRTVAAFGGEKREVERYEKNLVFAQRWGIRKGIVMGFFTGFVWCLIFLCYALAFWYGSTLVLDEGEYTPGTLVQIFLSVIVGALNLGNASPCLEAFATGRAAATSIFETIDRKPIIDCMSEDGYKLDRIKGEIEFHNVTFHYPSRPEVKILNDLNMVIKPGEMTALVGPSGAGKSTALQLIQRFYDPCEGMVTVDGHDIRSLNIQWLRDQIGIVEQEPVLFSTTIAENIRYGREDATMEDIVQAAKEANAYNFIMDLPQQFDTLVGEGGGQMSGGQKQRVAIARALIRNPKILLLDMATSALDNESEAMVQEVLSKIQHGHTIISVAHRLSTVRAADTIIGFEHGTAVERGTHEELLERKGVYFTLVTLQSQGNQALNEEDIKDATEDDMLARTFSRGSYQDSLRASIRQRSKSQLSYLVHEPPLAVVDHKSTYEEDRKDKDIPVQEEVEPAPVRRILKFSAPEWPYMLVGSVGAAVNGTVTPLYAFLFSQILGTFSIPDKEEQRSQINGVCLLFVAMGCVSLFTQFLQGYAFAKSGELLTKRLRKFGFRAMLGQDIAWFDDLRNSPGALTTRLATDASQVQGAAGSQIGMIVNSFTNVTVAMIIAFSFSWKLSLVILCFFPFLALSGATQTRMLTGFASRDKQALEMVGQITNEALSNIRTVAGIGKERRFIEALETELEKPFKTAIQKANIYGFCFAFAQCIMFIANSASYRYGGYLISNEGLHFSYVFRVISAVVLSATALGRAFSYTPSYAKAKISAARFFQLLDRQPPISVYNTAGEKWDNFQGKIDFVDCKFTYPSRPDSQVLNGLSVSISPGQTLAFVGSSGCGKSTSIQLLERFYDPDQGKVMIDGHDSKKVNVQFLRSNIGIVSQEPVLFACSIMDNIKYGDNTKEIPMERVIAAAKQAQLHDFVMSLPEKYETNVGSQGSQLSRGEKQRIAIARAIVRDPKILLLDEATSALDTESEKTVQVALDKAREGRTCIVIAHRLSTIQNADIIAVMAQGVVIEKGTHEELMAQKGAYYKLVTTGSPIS

Regarding `CC#C[C@@H](CC(=O)O)c1ccc(O[C@@H]2CCc3c(-c4ccc(O[C@@H]5CCOC5)nc4)ccc(F)c32)cc1` [Reference Example 1, (S)-3-(4-(((R)-7-Fluoro-4-(6-(((R)-tetrahydrofuran-3-yl)oxy)pyridin-3-yl)-2,3-dihydro-1H-inden-1-yl)oxy)phenyl)hex-4-ynoic acid], in [1] (SAD study), the “Changes in ECG, vital signs, and lab data” value is on record as “no significant changes”. Besides, the “Adverse events of special interest / serious adverse events” value in [1] (SAD study 0.5-10 mg) is “no adverse event of special interest (AESI) or serious adverse event (SAE) was reported”. For the same compound, the “Number of AEs considered possibly related to IMP” value in series [1] (SAD study, all mild intensity) amounted to 5. Also, the “Number of adverse events (AE) reported” value in [1] (SAD study, compound or placebo) came out at 12. In series [1] (single oral doses 0.5 mg to 10 mg), the “Tolerability of single doses” value was “safe and well tolerated”. Moreover, the “Reduction in glucose AUC in OGTT” value in series [2] is reported as “approximately 20.8%”. In addition, the IC50 (in general, the midpoint of a concentration-inhibition curve) in [3] (in vitro inhibition, read-out: BSEP IC50) was 14.3 µM; in [3] (read-out: BSEP (bile salt export pump) IC50), 14.3 µM; at MRP2 it was 39.9 µM; at MRP4, 4.4 µM. Also, the “MRP3 in vitro inhibition IC50” value at MRP3 was “No inhibition”. The “Accumulation of glycocholic acid (GCA)” value in series [4] is “does not show significant accumulation”. For the same compound, the “Inhibitory effect on mitochondrial function (DILI risk)” value in the series on HepaRG cell is “lower DILI risk than fasiglifam”. For the same compound, the “Dose predicted to exceed the CVB burden threshold of 1 mg/day” value with human hepatocytes is on record as “over 260 mg a day”. Further, the “CVB Burden” value in the series on human hepatocytes (daily dose 2 mg (human efficacious dose from PK/PD modeling)) is recorded as 0.01 mg/day. Further, the “Covalent binding (CVB), +Aminobenzotriazole (CYP inhibitor)” value in the series on human hepatocytes (human hepatocytes) was found to be 29.5 pmol/mg protein. In addition, the “Covalent binding (CVB), +Borneol (UGT inhibitor)” value in the series with human hepatocytes (human hepatocytes) amounted to 21.2 pmol/mg protein. The “Covalent binding (CVB), compound” value in the series with human hepatocytes (human hepatocytes, compound alone) worked out at 37.6 pmol/mg protein. In addition, the CC50 in series [5] worked out at 52.7 µM. In the series on FXR, the “Increase of FXR activity” value worked out at 1.58 fold. The “Effect on various transcription factor (TF) activities” value in [6] is reported as “insignificant”.
